Assay [1] deals with Adnp^+/− mice. Briefly: Object recognition test. The format is in vivo. Here is the method: Data are expressed as mean (±SEM) total time (sec) spent exploring all objects designated by relative discrimination index (a and b-exploration of familiar and novel object, respectively) in Phase 2 (A) and Phase 3 (B). Two identical objects were presented during Phase 1 (habituation), and one of the identical objects was replaced by a novel object during Phases 2 and 3. […] (C) 2-month-old mice (n=3-4 males or 6-8 females per experimental group) were treated daily, five times a week for 6 weeks with 0.5 μg NAP/mouse/day by intranasal administration in DD=7.5 mg/ml of NaCl, 1.7 mg/ml of citric acid monohydrate, 3 mg/ml of disodium phosphate dihydrate, and 0.2 mg/ml of 50% benzalkonium chloride solution. Animal performance in the object recognition test after four week treatment is shown. Data are expressed as mean (±SEM) as above, in the long retention choice phase (24 hours after habituation).
Experiments performed as we described in Malishkevich et al., 2015 (37) and Amram et al., Mol Psychiatry. 2016 October; 21(10):1467-76 (7). 3-6 month-old male mice were used, drug application (0.5 μg/5 μl/mouse) was once daily, for one month and then behavioral assays were initiated together with drug application. In experiments with the vehicle termed DD (NAP-benzalkonium), drug application was at 2 months of age and continued as above. Open field experiments (16, 17) and elevated plus maze evaluations (18) were carried out as before.
Animal performance in the object recognition memory test is shown. Two identical objects were presented during the habituation phase, and one of the identical objects was replaced by a novel object during the short retention choice phase (3 hours) and the long retention choice phase (24 hours).

For assay [2], the system named is Adnp^+/− mice. Briefly: Hanging wire test. It counts as in vivo. The text has this:
The hanging wire test measures the strength of the mouse paws by using the latency to fall off from an inverted cage lid (placed 50 cm above the surface) onto a soft bedding (maximum time 120 sec). Data are expressed as mean±SEM.

Assay [3] has as its system Adnp^+/− mice. Briefly: Grip strength test. It counts as in vivo. Conditions: male mice, treatment from 2 months of age, 0.5 μg NAP/mouse/day intranasal in DD, 5 weeks; p<0.05. As to the method:
The grip strength test measures forelimbs muscle strength using the UgoBasile 47200-Grip-Strength Meter. Each animal was tested five times and the peak force of each mouse was recorded. Data are expressed as mean±SEM.

The test system of assay [4] is Adnp^+/− mice. Briefly: MRI diffusion tensor imaging of chronically treated brains. It counts as in vivo. As to conditions: NAP in CB vs CB-treated Adnp^+/− mice. Here is the method: MRI was performed on a 7.0 T/30 spectrometer (Bruker, Rheinstetten, Germany) using a volume coil for excitation and a rat quadrature coil for acquisition. The MRI protocols included coronal T2 and diffusion tensor imaging (DTI). T2 weighted images obtained with RARE sequence, with repetition time=3000 msec and echo time=49 msec, RARE factor 8, 4 averages, field of view of 2×2 cm, matrix dimensions of 256×256 and 24 slices of 0.5 mm thickness with no gap. The 24 coronal sections were used for volumetric analysis of the whole brain, Lateral ventricle and Hippocampus. DTI was obtained using a diffusion-weighted (DW) spin-echo echo-planar-imaging (EPI) pulse sequence with the following parameters: TR/TE=4000/25 ms, Δ/δ=10/4.5 ms, 4 EPI segments and 32 non-collinear gradient directions with a single b value (1000 sec/mm^2) and two images with b value of 0 sec/mm2 (referred to as b0). Geometrical parameters were: 24 slices of 0.5 mm thickness, matrix size of 128×128 and FOV of 20 mm^2). The imaging protocol was repeated 3 times for signal averaging and to compensate for acquisition where significant head motion was observed. Image analysis included DTI analysis of the DW-EPI images to produce the FA, radial, and axial diffusivity indexed maps.

Assay [5] relates to Akap6. Briefly: Akap6 tongue gene expression, quantitative real-time PCR. The format is in vivo, mice. As to the method: Tongue total RNA was extracted from 4-month-old mice (treated with NAP/DD as above) and analyzed for Akap6, Hprt, and Gapdh mRNA expression by quantitative real-time PCR (n=6-14 replicates per experimental group). HPRT and Gapdh served as normalizing transcripts.
(§1) Quantitative reverse transcription real time polymerase chain reaction (RT-PCR) was performed as before (18, 37).
A general note: Quantitative PCR measures a nucleic acid by following its amplification.

The test system of assay [6] is Akap6. Briefly: Hippocampal Akap6 mRNA expression, quantitative real-time PCR. Conditions: 7.5-month-old mice treated with NAP/CB, normalized to Hprt. It counts as in vivo. Here is the method:
(§2) In females, NAP regulates genes deregulated with ADNP mutation in the hippocampus. […] Sexual dichotomy determined by t-test analysis was also observed for Akap6 and Chl1 expression between Adnp^+/− males and females (#p<0.05, ##p<0.01, ###p<0.001).
as §1

The next assay relates to Chl1. Briefly: Hippocampal Chl1 mRNA expression, quantitative real-time PCR. As to conditions: 7.5-month-old mice treated with NAP/CB, FIG. 8F. The format is in vivo. As to the method:
as §2, §1

The test system of a further assay is Adnp^+/− mouse pups. The assay can be described thus: Ultrasonic vocalization (USV) of pups after dam separation. The format is in vivo, mice. As to the method: Furthermore, Auditory brain response (ABR) of 2.5 months old mice presents prolonged latency of hearing in Adnp+/− vs. Adnp+/+ females. (A) Results are presented as means±SEM. Ultrasonic vocalizations (USVs) were recorded in eight-day-old pups, subjected to daily subcutaneous injections of NAP (25 μg/ml saline) or saline (20 μl and 40 μl on postnatal days 1-4 and 5-7). The recordings were performed following dam separation according to published literature (Shu, W., et al. 2005. Proc Nati Acad Sci USA 102:9643-9648) NAP was injected as described before (Rotstein, M., et al., 2006. J Pharmacol Exp Ther 319:332-339).
Language and speech deficits affect ADNP-mutated children (38, 39) and autistic children in general (51). In rodents, both speech and social communication are tested by analysis of isolation induced ultrasonic vocalizations (USVs) (52). As part of USV test, 25 μg of NAP were diluted in 1 ml saline and injected (subcutaneous) to Adnp^+/− mouse pups for 9 subsequent days (1-9 days of age) in doses of 20, 40 μl on days 1-4, 5-7 respectively (50).

Assay [7] relates to amnestic mild cognitive impairment patients. As to conditions: clinical study; cited from earlier work.
Setting [8] is: 5-month-old mice, 0.5 μg NAP/mouse/day intranasal in CB, 3 weeks, p<0.05.
The mark [9] stands for this setting: tongue, 4-month-old mice, NAP/DD, p<0.05.

Entries after “also recorded” stand apart in the source; their conditions may differ.

Turning to `CC[C@H](C)[C@H](NC(=O)[C@H](CO)NC(=O)[C@@H](NC(=O)[C@@H]1CCCN1C(=O)[C@H](C)NC(=O)[C@@H](N)CC(N)=O)C(C)C)C(=O)N1CCC[C@H]1C(=O)N[C@@H](CCC(N)=O)C(=O)O` [NAP], the “relative discrimination index, long retention choice phase, females” value with Adnp^+/− mice [1] (2-month-old mice, 0.5 μg NAP/mouse/day intranasal in DD, after four week treatment, p<0.05) was “normalizing the deficient female behavior”. In the assay on Adnp^+/− mice [1] (2-month-old mice, 0.5 μg NAP/mouse/day intranasal in DD, n=3-4), the “relative discrimination index, long retention choice phase, males” value was “only a trend”. Besides, the “relative discrimination index, short retention phase” value in the assay with Adnp^+/− mice [1] (2-month-old mice, NAP intranasal in DD) is given as “No differences were observed”. Besides, in the assay with Adnp^+/− mice [1] (3 hours after habituation, male mice 6-9 months, NAP in CB intranasal, NAP-treated vs Adnp^+/− p<0.001), the “relative discrimination index novel vs familiar object, short retention choice phase” value is listed as “Significant differences”. For the same molecule, in the assay on Adnp^+/− mice [1] (24 hours after habituation, male mice 6-9 months, NAP in CB intranasal, NAP-treated vs Adnp^+/− p<0.001), the “relative discrimination index novel vs familiar object, long retention choice phase” value is “Significant differences”. For the same molecule, the “latency to fall, males” value with Adnp^+/− mice [2] (2-month-old mice, 0.5 μg NAP/mouse/day intranasal in DD, 5 weeks, p<0.01) is on record as “improved”. Also, in the assay with Adnp^+/− mice [2] (setting [8]), the “latency to fall, females” value was “significant difference” and the “latency to fall, males” value is recorded as “significant difference”. Besides, in the assay on Adnp^+/− mice [3], the “forelimbs muscle strength (grip force)” value is listed as “significantly improving it”. Further, the “hippocampal mean diffusivity (MD)” value with Adnp^+/− mice [4] (hippocampal area −1.84 mm from Bregma) is given as “although insignificantly, was reduced”. For the same molecule, in the assay on Adnp^+/− mice [4] (hippocampal area −2.34 mm from Bregma, p<0.05), the “hippocampal fractional anisotropy (FA)” value is on record as “significantly reduced”. Moreover, the “dysregulated Akap6 expression in the tongue” value in the assay with Akap6 [5] (FIG. 8 C,D) was “amelioration”. Further, in the assay on Akap6 [5] (tongue, 4-month-old mice, NAP/DD), the “Akap6 normalized to Gapdh: vehicle Adnp^+/− female mice compared to NAP-treated Adnp^+/− mice” value is reported as “significantly increased expression”. In addition, in the assay with Akap6 [5] (setting [9]), the “Akap6 normalized to Gapdh: NAP-treated Adnp^+/− male mice compared to vehicle-treated” value is listed as “significantly increased” and the “Akap6 normalized to Hprt: vehicle Adnp^+/− male mice compared to NAP-treated Adnp^+/− mice” value is on record as “significantly decreased”. Further, the “hippocampal Akap6 expression, females, NAP-treated vs vehicle-treated Adnp^+/− mice” value in the assay on Akap6 [6] is “ameliorated; also recorded: significantly increased expression”. The “hippocampal Chl1 expression” value in the assay on Chl1 is listed as “also regulated by NAP”. Besides, in the assay with Adnp^+/− mouse pups (Adnp^+/− pups, NAP daily injections, FIG. 9C), the “USV per minute, male and female groups combined” value is reported as “protected against this deficiency; also recorded: most significant increase”. In the assay with Adnp^+/− mouse pups (Adnp^+/− pups, NAP vs saline treated littermates, increased group size, FIG. 9B), the “USV per minute by sex” value is “normalizing it in females; also recorded: increased vocalization in both sexes”. In addition, the “number of USVs produced in a minute, Adnp^+/− pups” value with Adnp^+/− mouse pups (eight-day-old pups, daily subcutaneous NAP (25 μg/ml saline) vs saline, p=0.005) is listed as “significant increase; also recorded: amelioration”. In the assay on Adnp^+/− mouse pups (eight-day-old pups, daily subcutaneous NAP vs saline, p=0.73), the “number of USVs produced in a minute, Adnp^+/+ pups” value is reported as “no significant treatment effect”. Also, in [7], the cognitive scores entry was “increase in cognitive scores”.

The record behind these values is patent US10912819B2, “Neuroprotective peptides derived from activity-dependent neuroprotective protein for treatment of neurological diseases” (priority 2016, dated 2021).
